Results taken from patent US20210163453A1, “DERIVATIVES OF PAPAVERINE THAT ARE EFFECTIVE HYPOXIC TUMOR RADIOSENSITIZERS” (Ohio State Innovation Foundation, priority 2018, published 2021).

What was measured:
[1] = tested on: EO771 tumors; test: Pimonidazole staining, hypoxic fraction of EO771 tumors; type: in vivo, mice
Description: (§1) P values were calculated against thigh muscle with two-tailed two-sample t test. FIG. 3B-3C show normalized tissue oxygenation in EO771 (b) or A549 (c) tumor-bearing mice after injection of 2 mg/kg PPV or vehicle saline (readings taken every minute, and curve is average of 5 traces). P value was analyzed by linear mixed model with autoregressive correlation structure at T=30-40 minutes. […] Values are mean area covered by pimonidazole-positive cells evaluated from 20 images per animal+−SEM. P value was calculated with two-tailed two-sample t test. […] Curves represent mean tumor volumes+−SEM. P values were calculated against XRT with two-tailed two-sample t test.
(§2) Bar graphs represent the mean area covered by pimonidazole-positive cells evaluated from 20 images per animal+−standard error of the mean. P value was calculated against control with two-tailed two-sample t test. […] Mean volumes+−SEM. P values were calculated against XRT with two-tailed two-sample t test. *P<0.05; **P<0.01; ***P<0.001; ****P<0.0001; n.s., not significant.
Pimonidazole staining. […] […] […] The hypoxic fraction of each tumor was quantified by thresholding signal at 50% of the maximum signal on control sections. Area covered by pimonidazole-positive cells was evaluated from 20 images per animal and averaged. Error bars represent the standard deviation.

[2] = tested on: EO771 tumors; test: Tumor growth delay of EO771 tumors with radiation (XRT); type: in vivo, mice; details: for effect of drug before radiation on tumor growth delay (words): orthotopic EO771, 2 mg/kg 30-40 minutes before 5 Gy; for enhancement of tumor growth delay over XRT alone: orthotopic EO771, 2 mg/kg before 5 Gy
Description: as §1
FIGS. 4A-4G show tumor growth before and after radiosensitization with PPV. FIG. 4A-4B show in vitro radiation survival assessment of A549 cell line treated with 10 μm PPV in normoxia (FIG. 4A) and anoxia (FIG. 4B). […] Values represent averaged colony counts+−standard deviation. […] Values are mean tumor volumes+−SEM. […] Values are mean tumor volumes+−SEM. FIG. 4E-4F show tumor growth delay. When tumors reached 4-fold volume increase, groups receiving no treatment or PPV only (FIG. 4E); and XRT only or PPV followed by XRT (FIG. 4F), tumor weights were compared. Values are mean tumor weights+−SEM (n=8). P values were calculated with two-tailed two-sample t test. FIG. 4G are related to FIG. 4E-4F tumor growth delay. Representative images of orthotopic EO771 tumors harvested on day 11 after treatment with XRT (top) or 2 mg/kg PPV followed by XRT (bottom). *P<0.05; **P<0.01; ***P<0.001; ****P<0.0001; n.s., not significant.
as §2
(§3) Tumor Growth kinetics. 2×10^6 EO771 or 5×10^6 A549 cells were injected s.c. into the flanks of 6-week old female immunocompetent C57/B6 (EO771) or immunocompromised nu/nu (A549) mice. Caliper measurements of opposing diameter were used to calculate the tumor volumes. Upon reaching […], the tumors were visualized by cone beam CT and treatment plans calculated using SARRP software. X-rays were delivered with a single beam delivering 5 Gy using the Small Animal Research Radiation Platform (SARRP, Xstrahl). Tumor volumes were measured until the post treatment volume increased 3-fold. Error bars represent standard deviation.
Both models of transplanted tumors that were used for the oxygenation experiments of papaverine's effect on radiation response in vivo were investigated. The murine breast cancer line EO771 that is syngeneic with the BL6 strain of mice was used and transplanted it orthotopically into the mammary fat pad of immune-competent mice. Also used was the human A549 lung adenocarcinoma line that was transplanted into the flank of immune-deficient mice. The breast cancers grew to approximately 150 mm^3 and were then randomized to receive either no treatment, a single dose of either 5 Gy, or papaverine at 2 mg/kg followed 30-40 minutes later by 5 Gy.

[3] = tested on: A549 cells; test: Seahorse OCR in A549 cells (dose response, IC50, washout); type: cell-based, Human
[4] = tested on: A549 flank xenografts; test: Tumor growth delay of A549 flank xenografts with radiation (XRT); type: in vivo, mice
Description: Curves represent mean tumor volumes+−SEM. P values were calculated against XRT with two-tailed two-sample t test. *P<0.05; **P<0.01; ***P<0.001; ****P<0.0001; n.s., not significant.
as §3
For the test of the A549 flank tumors, the tumors were treated similarly to the breast cancer model, but 8 Gy was used, and a treatment group added consisting of 8 Gy radiotherapy followed 30 minutes later by 2 mg/kg papaverine. The reverse schedule would indicate if the drug must be present before the radiation so that it would alter the tumor metabolism to make it more susceptible to the radiotherapy.

[5] = tested on: MP2 ODDluc tumors; test: ODD-luciferase in vivo oxygen reporter (bioluminescence imaging); parameters: species or system mice; details: MP2 ODDluc tumors, 2 and 6 hours after drug
Text: FIGS. 14A-14E summarize results obtained using ODD-luciferase as an in vivo oxygen reporter. […] (n=3-4, P<0.05).
Use of ODD-luciferase as an in vivo oxygen reporter. We have fused the oxygen dependent degradation domain (ODD) of the HIF1a protein to the luciferase reporter protein. This fusion protein is expressed in tumor cells and is stable and reports well in hypoxia, but is destroyed by cellular machinery when cells are well oxygenated (FIG. 14A). These cells were used to grow tumors in immune-deficient mice and the animals were exposed either 95% oxygen/5% CO2 (carbogen) or medical air and the tumor bioluminescence imaged by IVIS 30 minutes post injection. Increasing oxygen breathing decreases reporter signal (FIG. 14B). These animals were then treated with either papaverine or vehicle (FIG. 14C) or SMV32 or vehicle (FIG. 14E).

[6] = tested on: NDUFV1 KO NDI1 flank tumors; test: Pimonidazole staining, NDUFV1 KO NDI1 flank tumors; type: in vivo, mice; details: 2 mg/kg PPV
Description: FIGS. 5A-5E show papaverine radiosensitizes through complex I inhibition. […] Values represent mean viable cells+−SD. […] Values are mean+−SD. […] P value was calculated with two-tailed two-sample t test. […] Curves represent mean tumor volumes+−SEM.
Pimonidazole staining. Pimonidazole adducts were visualized in hypoxic regions within histological sections of tumor tissues (Kizaka-Kondoh, S. et al. Cancer science 100, 1366-1373 (2009)). Immune-deficient mice bearing EO771 and A549 flank xenografts were treated with 2 mg/kg PPV or saline and 60 mg/kg pimonidazole administered I.P. at 30 minutes and tumors harvested at 90 minutes. Tumor sections were stained with anti-pimonidazole rabbit antisera and anti-rabbit Alexa Fluor 488 secondary antibody. The hypoxic fraction of each tumor was quantified by thresholding signal at 50% of the maximum signal on control sections. Area covered by pimonidazole-positive cells was evaluated from 20 images per animal and averaged. Error bars represent the standard deviation.

SMILES	decrease in the hypoxic fraction of tumors ([1]; 2 mg/kg PPV for one hour, pimonidazole) [%]	effect of drug before radiation on tumor growth delay (words) [2]	effect of drug before radiation on tumor growth delay (words) ([2]; listed as papaverine)	enhancement of tumor growth delay over XRT alone [2]	enhancement of tumor growth delay over XRT alone ([2]; listed as papaverine)	effect of single dose of drug alone on tumor growth ([2]; orthotopic EO771, 2 mg/kg, no XRT)	time for OCR to return to baseline after drug removal (washout) ([3]; 10 μM PPV, media replaced)	dose needed relative to rotenone for similar OCR inhibition ([3]; dose response analysis, A549)	effect of drug after XRT on growth delay ([4]; 2 mg/kg after 8 Gy)	effect of drug before XRT on growth delay ([4]; 2 mg/kg before 8 Gy)	increase in tumor growth delay compared to XRT alone ([4]; 2 mg/kg before 8 Gy)	increase in tumor growth delay compared to XRT alone ([4]; 2 mg/kg before 8 Gy, listed as papaverine)	ODD-luciferase reporter signal [5]	hypoxic fraction by pimonidazole [6]	tumor hypoxia by pimonidazole staining ([1]; orthotopic EO771, immune-competent mice, 2 mg per kg)	growth delay compared to radiation alone ([2]; heterotopic EO771 flank tumors, nude mice, 2 mg/kg 35 minutes prior to 5 Gy)	IC50 ([3]; Homo sapiens, A549 cells by Seahorse, n=5 replicates, read-out: mitochondrial IC50 (OCR IC50)) [µM]
COc1ccc(Cc2nccc3cc(OC)c(OC)cc23)cc1OC [PPV, papaverine]	72	significantly adds to tumor growth delay	significantly enhanced the antitumor effects of the radiation	2-4 fold	1.9-2.8 fold	no significant effect	less than one and one	100 × higher dose than rotenone	did not have any effect compared to radiation alone	enhances tumor growth delay	greater than 3 fold	2.1-3.9 fold	significant decrease in signal	no decrease of the hypoxic fraction			
COc1cc2ccnc(Cc3cccc4ccccc34)c2cc1OC [SMV-32]													significant decrease in signal		decreased tumor hypoxia	activity that is comparable to papaverine	7.4
